{"source": "paper PMC6470842", "about": "(Pharmaceutics, 2019)", "key": {"[1]": {"conditions": "humans"}, "rOCT2 [2]": {"target": "rOCT2", "conditions": "[14C]-tetraethylammonium accumulation via rOCT2; cited from earlier work"}, "rMATE1": {"target": "rMATE1", "conditions": "cited from earlier work"}, "[3]": {"conditions": "rats, cited from earlier work"}, "in vivo": {"test": "in vivo", "conditions": "rat, kidney, intravenous, 8 mg/kg"}, "[4]": {"conditions": "rats, assumed from human value; cited from earlier work"}, "MATE1": {"tested_on": "MATE1", "conditions": "read-out: apparent Ki MATE1; cited from earlier work"}, "rOCT2 [5]": {"tested_on": "rOCT2", "conditions": "read-out: Km rOCT2; cited from earlier work"}, "[6]": {"conditions": "humans, intravenous; cited from earlier work"}, "[7]": {"conditions": "cited from earlier work"}, "[8]": {"conditions": "rat plasma; cited from earlier work"}, "[9]": {"target": "T1, N-acetyltransferase II (NAT-II) (Rattus norvegicus, UniProt P50298)", "T1 sequence (P50298 1-290)": "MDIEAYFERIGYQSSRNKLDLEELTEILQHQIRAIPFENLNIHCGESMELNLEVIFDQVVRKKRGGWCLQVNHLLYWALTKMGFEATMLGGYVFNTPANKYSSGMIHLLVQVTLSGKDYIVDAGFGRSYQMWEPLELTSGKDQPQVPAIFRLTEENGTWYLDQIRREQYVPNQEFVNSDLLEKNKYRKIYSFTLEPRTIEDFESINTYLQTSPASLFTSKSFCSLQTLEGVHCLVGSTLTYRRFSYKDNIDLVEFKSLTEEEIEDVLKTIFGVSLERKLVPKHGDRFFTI", "test": "In vitro metabolic conversion of PA to NAPA in rat liver S9 fractions", "method": "The mixture was preincubated at 37 °C for 5 min in a Multi-Therm Shaker (Benchmark Scientific, South Plainfield, NJ, USA) set at 200 oscillations per min. After preincubation, the reaction was started by adding 10 µL of 20 mM acetyl-CoA and vortex mixing. Upon collecting samples at 0 min and 30 min after initiation by pipetting out 50 µL of aliquot into an Eppendorf tube, the metabolic reaction was terminated by adding 100 µL of ice-cold methanol containing IS (200 ng/mL). […] After the preincubation of the mixture (37 °C for 5 min in Benchmark Multi-Therm Shaking Vortexer set at 200 oscillations per min), the reaction was initiated by adding 10 µL of 20 mM acetyl-CoA and vortex mixing. Samples (50 µL) were collected at predetermined times (0, 15, or 30 min after initiation) and ice-cold methanol (100 µL) containing IS (200 ng/mL) was added to terminate the reaction. All samples were vortex mixed and centrifuged at 12,000 g for 10 min at 4 °C. Finally, 70 µL aliquots of supernatants were transferred into vials and 2 µL was injected into the UHPLC system to determine the concentration of the formed metabolite, NAPA."}, "[10]": {"test": "Systemic pharmacokinetics after intravenous administration in rats (noncompartmental analysis)", "conditions": "rats", "method": "After recovery from anesthesia, rats in both groups received intravenous bolus injections. […] To compensate for the loss of body fluid due to serial blood sampling, an identical volume of saline was intravenously replenished after each blood sampling.\nVolumes of the urinary samples were measured, followed by 100-fold dilution of the samples (for urinary samples obtained from 0 to 8 h) or 50-fold dilution, with distilled deionized water. All samples were then stored at −80 °C until analysis.\nIn this study, conventional noncompartmental analyses were conducted using Winnonlin Professional 5.0.1 software (Pharsight Corporation, Mountain View, CA, USA) to calculate pharmacokinetic parameters [38], including area under the plasma concentration-time curve (AUC) from time zero to infinity (AUCinf), systemic clearance (CL), terminal phase half-life, mean residence time (MRT), and volume of distribution at steady state (VSS). In addition, parameters including the maximal concentration (Cmax) and the time to the Cmax of NAPA (Tmax) were also estimated.\nNon-renal clearance (CLNR) was then determined by subtracting CLR from CL."}}}
{"molecule": "CN/C(=N/CCSCc1nc[nH]c1C)NC#N", "note": "[cimetidine, Cimetidine]", "values": [{"measurement": "CLsec", "setting": "CLR minus fup·GFR", "value": 4.76, "unit": "mL/min/kg"}, {"measurement": "CLH", "setting": "calculated", "value": 2.79, "unit": "mL/min"}, {"measurement": "CLD1", "setting": "fitted, value (CV%)", "value": "17.6 (22.7) mL/min"}, {"measurement": "CLD2", "setting": "fitted, value (CV%)", "value": "2.96 (138) mL/min"}, {"measurement": "V1", "setting": "fitted, value (CV%)", "value": "125 (63.4) mL"}, {"measurement": "V2", "setting": "fitted, value (CV%)", "value": "200 (80.0) mL"}, {"measurement": "VC", "setting": "fitted, value (CV%)", "value": "83.7 (6.78) mL"}, {"measurement": "CLu,int,r", "setting": "retrograde calculation", "value": 0.140, "unit": "mL/min"}, {"measurement": "PSin", "setting": "retrograde calculation", "value": 839, "unit": "mL/min"}, {"measurement": "PSout", "setting": "scaled from PAMPA permeability", "value": 74.1, "unit": "mL/min"}, {"measurement": "renal clearance relative to theoretical GFR", "setting": "[1]", "value": 6.4, "unit": "fold"}, {"measurement": "Ki", "setting": "rOCT2 [2]", "value": 9.4, "unit": "µM"}, {"measurement": "Ki", "setting": "rMATE1; assumed equal to Km of cimetidine transport by rMATE1", "value": 3.01, "unit": "µM"}, {"measurement": "Km", "setting": "rMATE1; cimetidine transport mediated by rMATE1", "value": 3.01, "unit": "µM"}, {"measurement": "fraction of the dose excreted unchanged (fe)", "setting": "[3]; 100 mg/kg", "value": 0.45}, {"measurement": "kidney-to-plasma concentration ratio", "setting": "[3]; 90 min after bolus injection of 8 mg/kg, regarded as Kp,ss", "value": 9.25}, {"measurement": "Kp at 90 min", "setting": "in vivo", "value": 10.3}, {"measurement": "B/P ratio (R)", "setting": "[4]", "value": 1}, {"measurement": "Ki", "setting": "MATE1", "value": 1.1, "unit": "µM"}, {"measurement": "Km", "setting": "rOCT2 [5]", "value": 71.5, "unit": "µM"}, {"measurement": "renal clearance", "setting": "[6]", "value": "approximately 9.25 mL/min/kg"}, {"measurement": "PAMPA permeability", "setting": "[7]", "value": 3.02, "unit": "×10⁻⁶ cm/s"}, {"measurement": "fup", "setting": "[8]", "value": 0.836}, {"measurement": "IC50", "setting": "[9]", "value": "2060 ± 242", "unit": "µM"}, {"measurement": "AUC(0-inf)", "setting": "[10]; male, SD, rat, plasma, iv, 100 mg/kg, AUCinf, iv 100 mg/kg cimetidine", "value": 87000, "unit": "ng·h/mL"}, {"measurement": "clearance", "setting": "[10]; male, SD, rat, plasma, iv, 100 mg/kg, CL, iv 100 mg/kg cimetidine", "value": "20.3 ± 5.68", "unit": "mL/min/kg"}, {"measurement": "MRT", "setting": "[10]; male, SD, rat, plasma, iv, 100 mg/kg, MRT, iv 100 mg/kg cimetidine", "value": 1.35, "unit": "h"}, {"measurement": "Vd", "setting": "[10]; male, SD, rat, plasma, iv, 100 mg/kg, VSS, iv 100 mg/kg cimetidine", "value": "1.6 ± 0.318", "unit": "L/kg"}, {"measurement": "half-life", "setting": "[10]; male, SD, rat, plasma, iv, 100 mg/kg, t1/2β, iv 100 mg/kg cimetidine", "value": "2.27 ± 1.29", "unit": "h"}, {"measurement": "effective (free) concentration in the plasma", "setting": "[10]; cimetidine 100 mg/kg", "value": "below 0.750 mM"}]}
